The nature of this data set: chemical recovery from spiked human plasma; higher = better extraction. The conditions noted are these: pooled human plasma.
Where [1] appears, read: extraction method: SPE only (HLB 96-well).
The mark [2] stands for this setting: extraction method: SPE only (HLB 96-well), PES comparison experiment.
The mark [3] stands for this setting: extraction method: PES+SPE (3 d PDMS equilibration then HLB SPE).
Setting [4] is: extraction method: solvent precipitation (ACN + hexane).

± gives the standard deviation.

Consider `c1cc2c3c(cccc3c1)CC2` [Acenaphthene], for which the chemical recovery was determined as 9.53 ± 0.88% under setting [1] and 3.64 ± 1.1% under setting [2].
For `COP(=O)(NC(C)=O)SC` (stereo not drawn) [Acephate], the chemical recovery under setting [3] worked out at 3.58 ± 0.54% and the chemical recovery under setting [1] turned out to be 5.48 ± 5.2%.
Regarding `CC(=O)Nc1ccccc1` [Acetanilide], the chemical recovery reads like this: under setting [3], 40.3 ± 9.3%; under setting [1], 42 ± 2.4%; under setting [4], 80.1 ± 3.5%.
Regarding `c1ccc2nc3ccccc3cc2c1` [Acridine], the chemical recovery runs as follows: under setting [3], 39.7 ± 8%; under setting [1], 28.4 ± 1.4%; under setting [2], 51.6 ± 11%; under setting [4], 49.6 ± 2.4%.
`Nc1c(Br)cc(Br)cc1CN[C@H]1CC[C@H](O)CC1` [Ambroxol] returned a chemical recovery under setting [3] of 5.97 ± 0.52%, a chemical recovery under setting [1] of 37.1 ± 7.2% and a chemical recovery under setting [2] of 29.4 ± 6.9%.
In the case of `CCN1CCCC1CNC(=O)c1cc(S(=O)(=O)CC)c(N)cc1OC` (stereo not drawn) [Amisulpride], the chemical recovery under setting [4] was found to be 70.3 ± 3.4%.
Turning to `C[C@@]12CCC[C@H]1[C@@H]1CC[C@H]3C[C@@H](O)CC[C@]3(C)[C@H]1CC2` [Androstanol], the chemical recovery under setting [1] is 1.3 ± 0.4% and the chemical recovery under setting [4] is 44.7 ± 6%.
On to `Nc1ccccc1` [Aniline], for which the chemical recovery came to 4.94 ± 0.92% under setting [3] and 4.14 ± 2.7% under setting [1].
For `CC(C)(C)c1cc(Cn2c(=O)n(Cc3cc(C(C)(C)C)c(O)c(C(C)(C)C)c3)c(=O)n(Cc3cc(C(C)(C)C)c(O)c(C(C)(C)C)c3)c2=O)cc(C(C)(C)C)c1O` [Antioxidant-3114], the chemical recovery reads like this: under setting [1], 5.69 ± 2.6%; under setting [4], 58.4 ± 13%.
Take `CC(C)NCC(O)COc1ccc(CC(N)=O)cc1` (stereo not drawn) [Atenolol]: the chemical recovery by setting is: under setting [3], 17.1 ± 4.2%; under setting [1], 14 ± 6.1%; under setting [4], 76 ± 2.5%.
Turning to `CC(C)c1c(C(=O)Nc2ccccc2)c(-c2ccccc2)c(-c2ccc(F)cc2)n1CC[C@@H](O)C[C@@H](O)CC(=O)O` [Atorvastatin], the chemical recovery runs as follows: under setting [3], 32.2 ± 9.6%; under setting [1], 30.1 ± 3.9%; under setting [2], 41.1 ± 8.4%; under setting [4], 61.7 ± 3%.
`COc1ccc(C(=O)CC(=O)c2ccc(C(C)(C)C)cc2)cc1` [Avobenzone] registered a chemical recovery under setting [1] of 8.77 ± 0.79%.
Same read-out and setting: as for `O=C(O)CCCCCCCC(=O)O` [Azelaic-acid], the figure is 53.1 ± 4%.
The compound `Brc1cc(Br)c(Oc2c(Br)cc(Br)c(Br)c2Br)cc1Br` [BDE183] had a chemical recovery under setting [3] of 5.01 ± 7.1%.
For the compound `CCN(CCO)c1ccc(/N=N/c2sc3cc(OC)ccc3[n+]2C)cc1` [Basic-Blue-41], the chemical recovery under setting [4] is 18.5 ± 1.6%.
Regarding `CC(C)N1C(=O)c2ccccc2N(C)S1(=O)=O` [Bentazone-methyl], the chemical recovery was 53.5 ± 11% under setting [3], 28.9 ± 1.5% under setting [1] and 46.3 ± 5.3% under setting [4].
For `c1ccc2[nH]cnc2c1` [Benzimidazole], in that order: 16.9 ± 4.1%, 4.01 ± 3.3% and 72 ± 2.6%.
As for `c1ccc2c(c1)ccc1sc3ccccc3c12` [Benzo[b]naphtho(1,2-d)thiophene], the chemical recovery runs as follows: under setting [1], 0.745 ± 0.2%; under setting [4], 20.4 ± 2.6%.
Take `c1ccc2cc3c(cc2c1)sc1ccccc13` [Benzo[b]naphtho(2,3-d)thiophene]: the chemical recovery under setting [3] was 61.7 ± 20%, the chemical recovery under setting [1] amounted to 0.871 ± 0.26% and the chemical recovery under setting [4] is 63.3 ± 6.8%.
`O=C(OCc1ccccc1)c1ccccc1O` [Benzyl salicylate]: the chemical recovery is 1.14 ± 0.085% under setting [1] and 26.5 ± 2.6% under setting [4].
The like results for `c1ccc(COc2ccc3ccccc3c2)cc1` [Benzyl-2-naphthylether] were, in that order, 0.473 ± 0.12% and 24.2 ± 0.93%.
As for `CCCCCCCCCC[N+](C)(C)Cc1ccccc1` [Benzyldimethyldecylammonium], the chemical recovery under setting [4] is 66.1 ± 3.3%.
`CCCCCCCCCCCCCCCC[N+](C)(C)Cc1ccccc1` [Benzyldimethylhexadecylammonium]: the chemical recovery under setting [4] turned out to be 63.9 ± 7.4%.
For the compound `C[N+](C)(C)Cc1ccccc1` [Benzyltrimethylammonium], the chemical recovery was determined as 3.88 ± 2.8% under setting [1] and 75.8 ± 2.6% under setting [4].
Consider `Cc1c(COC(=O)C2C(/C=C(\Cl)C(F)(F)F)C2(C)C)cccc1-c1ccccc1` (stereo not drawn) [Bifenthrin], for which the chemical recovery stood at 0.536 ± 0.24% under setting [1] and 18.9 ± 3.9% under setting [4].
Consider `CCCCC(CC)COP(=O)(O)OCC(CC)CCCC` (stereo not drawn) [Bis(2-ethylhexyl)phosphate], for which the chemical recovery under setting [3] came to 16.4 ± 4.5%, the chemical recovery under setting [1] was 20.3 ± 2.5%, the chemical recovery under setting [2] amounted to 3.88 ± 1.6% and the chemical recovery under setting [4] was determined as 52.8 ± 4.3%.
For `CCCCCC(CCC)COC(=O)c1ccccc1C(=O)OCC(CCC)CCCCC` (stereo not drawn) [Bis(2-propylheptyl)-phthalate], the chemical recovery under setting [4] came out at 70.9 ± 7.4%.
The same measure, in the same setting: as for `CC1CC(CC2CCC(N)C(C)C2)CCC1N` (stereo not drawn) [Bis(4-amino-3-methylcyclohexyl)methane], the figure is 41.1 ± 7.7%.
Take `Oc1ccc(C(c2ccc(O)cc2)(C(F)(F)F)C(F)(F)F)cc1` [Bisphenol-AF]: the chemical recovery by setting is: under setting [3], 86.8 ± 4.4%; under setting [1], 51.2 ± 7.6%; under setting [4], 41.6 ± 2.4%.
With `CC(C)(c1ccc(O)cc1)c1ccc(O)cc1` [Bisphenol-A], the chemical recovery reads like this: under setting [3], 69.8 ± 4.4%; under setting [1], 45.4 ± 3.8%.
For `Oc1ccc(C(c2ccccc2)(c2ccccc2)c2ccc(O)cc2)cc1` [Bisphenol-BP], the chemical recovery was 40.9 ± 7.5% under setting [1] and 35.1 ± 3.6% under setting [4].
With `CCC(C)(c1ccc(O)cc1)c1ccc(O)cc1` [Bisphenol-B], the chemical recovery came to 63.4 ± 2% under setting [3], 45.4 ± 1.4% under setting [1] and 49.7 ± 3.2% under setting [4].
For `Cc1cc(C(C)(C)c2ccc(O)c(C)c2)ccc1O` [Bisphenol-C], in that order: 52.7 ± 2.9%, 34.5 ± 4.8% and 39.4 ± 2.5%.
As for `CC(c1ccc(O)cc1)c1ccc(O)cc1` [Bisphenol-E], the chemical recovery reads like this: under setting [3], 62.3 ± 2.5%; under setting [1], 51 ± 4%; under setting [4], 63.7 ± 3.1%.
As for `Oc1ccc(C2(c3ccc(O)cc3)c3ccccc3-c3ccccc32)cc1` [Bisphenol-FL], the chemical recovery is, setting by setting: under setting [1], 34.3 ± 5.9%; under setting [4], 26.8 ± 4.5%.
In the case of `Oc1ccc(Cc2ccc(O)cc2)cc1` [Bisphenol-F], the chemical recovery amounted to 70.2 ± 3.4% under setting [3], 56 ± 2.6% under setting [1] and 72.6 ± 3.6% under setting [4].
For `CC(C)c1cc(C(C)(C)c2ccc(O)c(C(C)C)c2)ccc1O` [Bisphenol-G], the chemical recovery is, setting by setting: under setting [1], 8.379 ± 0.058%; under setting [4], 39.5 ± 3.7%.
`CC(C)(c1ccc(O)c(-c2ccccc2)c1)c1ccc(O)c(-c2ccccc2)c1` [Bisphenol-PH]: the chemical recovery under setting [3] stood at 64.8 ± 12%, the chemical recovery under setting [1] worked out at 26.7 ± 7% and the chemical recovery under setting [4] was 38 ± 5%.
For `CCC(C)n1c(=O)[nH]c(C)c(Br)c1=O` (stereo not drawn) [Bromacil], in that order: 64.5 ± 4.7%, 49.3 ± 3% and 72.7 ± 2.8%.
In the case of `CC(NC(C)(C)C)C(=O)c1cccc(Cl)c1` (stereo not drawn) [Bupropion], the chemical recovery stood at 0.191 ± 0.047% under setting [3], 37.7 ± 3.8% under setting [1], 38.7 ± 8.2% under setting [2] and 23.5 ± 3.1% under setting [4].
Compound `CNC(=O)ON=C(C)C(C)SC` (stereo not drawn) [Butocarboxim] gave a chemical recovery under setting [2] of 46.4 ± 8.7%.
With `Oc1ccc2c(c1)[C@@]13CCCC[C@@]1(O)[C@@H](C2)N(CC1CCC1)CC3` [Butorphanol], the chemical recovery worked out at 34.7 ± 9.8% under setting [1] and 65.5 ± 6.6% under setting [4].
`CCCCOC(=O)c1ccc(O)cc1` [Butylparaben]: the chemical recovery under setting [3] was determined as 51.3 ± 3.1%, the chemical recovery under setting [1] stood at 37.5 ± 1.3% and the chemical recovery under setting [4] stood at 64.9 ± 1.9%.
Turning to `CNC(=O)Oc1cccc2c1OC(C)(C)C2` [Carbofuran], the chemical recovery runs as follows: under setting [3], 41.4 ± 4.8%; under setting [1], 43.6 ± 1.7%; under setting [4], 47.2 ± 7%.
Take `c1ccc2c(c1)[nH]c1ncccc12` [Carboline]: the chemical recovery by setting is: under setting [3], 28 ± 5.2%; under setting [1], 40.3 ± 2.9%; under setting [4], 72.2 ± 3.8%.
In the case of `Nc1nc2c(ncn2COCC(=O)O)c(=O)[nH]1` [Carboxy-aciclovir], under setting [1], the chemical recovery is 1.5 ± 1.3%.
For the compound `CCCC(C)(COC(N)=O)COC(=O)NC(C)C` (stereo not drawn) [Carisoprodol], the chemical recovery under setting [4] is 78.1 ± 5.9%.
As to `C[C@H](CCC(=O)O)[C@H]1CC[C@H]2[C@@H]3[C@H](O)C[C@@H]4C[C@H](O)CC[C@]4(C)[C@H]3CC[C@]12C` [Chenodeoxycholic-acid], the chemical recovery was 37.4 ± 7.9% under setting [1] and 74.9 ± 4.7% under setting [4].
`CNC(=O)c1cc(Cl)cc(C)c1NC(=O)c1cc(Br)nn1-c1ncccc1Cl` [Chlorantraniliprole]: the chemical recovery reads like this: under setting [3], 66.7 ± 5.2%; under setting [1], 49.5 ± 2.3%; under setting [4], 75.5 ± 1.2%.
For `Cc1cc(Cl)ccc1/N=C/N(C)C` [Chlordimeform], the chemical recovery under setting [3] came to 28.8 ± 4.5%, the chemical recovery under setting [1] came to 24.7 ± 4.2% and the chemical recovery under setting [4] was found to be 30.1 ± 3.3%.
For `O=C(O)C1C(C(=O)O)C2(Cl)C(Cl)=C(Cl)C1(Cl)C2(Cl)Cl` (stereo not drawn) [Chlorendic-acid], in that order: 27 ± 6.5%, 23.9 ± 3.7% and 28.2 ± 7.5%.
For the compound `C[N+](C)(C)CCCl` [Chlormequat], the chemical recovery is, setting by setting: under setting [3], 0.51 ± 0.024%; under setting [1], 0.778 ± 0.52%; under setting [2], 10.2 ± 8.2%; under setting [4], 85 ± 12%.
For the compound `N=C(NCCCCCCNC(=N)NC(=N)Nc1ccc(Cl)cc1)NC(=N)Nc1ccc(Cl)cc1` [Chlorohexidine], under setting [4], the chemical recovery came to 54.5 ± 1.9%.
`COc1nc(C)nc(NC(=O)NS(=O)(=O)c2ccccc2Cl)n1` [Chlorosulfuron]: under setting [4], the chemical recovery is 67.9 ± 3.4%.
With `N#Cc1c(O)c(Cl)c(Cl)c(C#N)c1Cl` [Chlorothalonil-4-hydroxy], the chemical recovery was 37.1 ± 5.2% under setting [3], 32.4 ± 3% under setting [1] and 33.8 ± 7.8% under setting [2].
As to `N#Cc1cc(Cl)c(O)c(Cl)c1` [Chloroxynil], the chemical recovery is, setting by setting: under setting [3], 59 ± 2.5%; under setting [1], 46.1 ± 5.2%; under setting [4], 74.3 ± 3.8%.
Regarding `CN(C)CCC(c1ccc(Cl)cc1)c1ccccn1` (stereo not drawn) [Chlorpheniramine], the chemical recovery by setting is: under setting [3], 0.333 ± 0.13%; under setting [1], 33.5 ± 3.4%; under setting [4], 54 ± 5.6%.
Take `CCCNC(=O)NS(=O)(=O)c1ccc(Cl)cc1` [Chlorpropamide]: the chemical recovery is, setting by setting: under setting [3], 55.3 ± 5%; under setting [1], 47.5 ± 3.5%; under setting [4], 76.8 ± 4.6%.
The like results for `CC(C)OC(=O)Nc1cccc(Cl)c1` [Chlorpropham] were, in that order, 37.9 ± 13%, 41.5 ± 2.7% and 43.8 ± 4.5%.

(Values after the supplement of paper PMC10702517.)
